Here are results for six compounds from PubChem BioAssay (NCI).

Holding throughout (test): NCI tumour cell line growth inhibition, 48 h
Experiment [1] relates to A498 renal.
Experiment [2] deals with DU-145 prostate.
The test system of experiment [3] is MALME-3M melanoma.
In experiment [4] the test system is CAKI-1 renal.
Experiment [5] has as its system SW-620 colon.
Experiment [6] has as its system NCI-H226 lung.
Experiment [7] deals with OVCAR-8 ovarian.
In experiment [8] the test system is UACC-62 melanoma.
For experiment [9], the system named is EKVX NSCLC.
Experiment [10] relates to MDA-MB-435.

“And” between values parts separate entries of the source, which are not always exact repeats. Identical values can stand only once.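 96-well plates; 48 h exposure; 5 concentrations. Endpoints by linear interpolation between flanking doses. Not reached: highest tested concentration assigned. GI50 marks 50% less growth. TGI marks complete inhibition of growth.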

Regarding `CC(C)C[C@H](NC(=O)[C@@H](NC(=O)c1cccc(-c2ccccc2)n1)[C@@H](C)O)B(O)O`, the GI50 in experiment [1] was 0.00247 µM; in experiment [2], 0.0077 µM; in experiment [3], 0.00297 µM; in [4], 0.0146 µM and < 0.0174 µM; in experiment [5] it was 0.00411 µM; in experiment [6], 0.00219 µM and < 0.0116 µM. Also, the GI50 in [7] is 0.0261 µM and 0.0238 µM; in [8] it was 0.00558 µM and < 0.0111 µM. Besides, the TGI is 0.0061 µM and < 0.0178 µM in [1]; 1.81 µM in experiment [2]; 0.00838 µM and < 0.0196 µM in experiment [3]; 2.34 µM in experiment [5]; 0.00538 µM and 0.0245 µM in [6]; more than 51.6 µM in experiment [7]. In addition, the TGI in experiment [8] was 0.0311 µM and 0.0412 µM.

With `O=C(CCSc1ccnc2c(C(F)(F)F)cccc12)N/N=C/c1cc(Cl)c(Cl)cc1Cl`, the GI50 in experiment [9] was 38.1 µM; in experiment [2] it was 18.2 µM; in experiment [10], 27.3 µM; in experiment [3], 50.1 µM; in experiment [4] it was 21.4 µM; in experiment [5], 23.8 µM. The GI50 in experiment [6] is 17.6 µM; in [7] it was 32.5 µM; in [8], 15.4 µM. The TGI is more than 100 µM in [9]; 40 µM in experiment [2]; 75.4 µM in experiment [10]; more than 100 µM in [3]; 43.4 µM in experiment [4]; 43.4 µM in [5]. The results for the TGI in experiment [6], in experiment [7] and in experiment [8] were 39.3 µM, 86 µM and 39.7 µM, respectively.

Turning to `FC(F)(F)c1cccc2c(SCCc3n[nH]c(=S)o3)ccnc12`, the GI50 in [9] is 27.6 µM; in [2], 78.4 µM; in [10], 45.4 µM; in experiment [3], 44.5 µM; in experiment [4] it was 45.1 µM; in [5] it was more than 100 µM. The GI50 in experiment [6] was 37.1 µM; in [7], 36.5 µM; in [8] it was 16.6 µM. The TGI in [9], in [2], in experiment [10], in experiment [3], in [4] and in experiment [5] was more than 100 µM throughout. For the same compound, the TGI in experiment [6] was more than 100 µM; in [7], more than 100 µM; in experiment [8] it was 34 µM.

With `O=C1c2ccccc2-c2c1c1ccc([N+](=O)[O-])cc1c(=O)n2CCCNCCO`, the GI50 was 1.39 µM in experiment [1]; 0.95 µM in [10]; 0.341 µM in experiment [3]; 0.126 µM in [4]; 0.0594 µM in [5]; 1.01 µM in experiment [6]. The results for the GI50 in experiment [7] and in [8] were 0.225 µM and 0.372 µM, respectively. The TGI was 3.75 µM in experiment [1]; more than 21 µM in experiment [9]; 2.67 µM in [10]; 1.62 µM in experiment [3]; 1.81 µM in experiment [4]; 1.77 µM in experiment [5]. For the same compound, the TGI in [6] amounted to 3.65 µM; in experiment [7], 3.64 µM; in experiment [8], 1.85 µM.

For the compound `Nc1nccc2c1ncn2C1OC(CO)C(O)C1O` (configuration not stated), the GI50 is more than 100 µM in experiment [9]; more than 100 µM in experiment [2]; more than 100 µM in [3]; more than 100 µM in experiment [4]; 92.4 µM in [5]; more than 100 µM in experiment [6]. Besides, the GI50 in experiment [7] is 91.5 µM; in [8], more than 100 µM. For the same compound, the TGI in [9], in experiment [2], in experiment [3], in experiment [4], in [5] and in experiment [6] was more than 100 µM in each case. The TGI in [7] and in [8] was more than 100 µM each time.

As to `COC(=O)[C@H](C)NC(=O)[C@@H](OC)[C@@H]1Cc2cc3cc(OC4CC(OC5CC(O)C(O)C(C)O5)C(O)C(C)O4)c(C)c(O)c3c(O)c2C(=O)[C@H]1OC1CC(OC2CC(OC3CC(C)(O)C(O)C(C)O3)C(O)C(C)O2)C(O)C(C)O1` (some centres not stated), the GI50 in experiment [9] was 0.174 µM; in experiment [2], 0.146 µM; in experiment [10], 0.0755 µM; in experiment [3] it was 0.0296 µM; in [4], 0.129 µM; in experiment [5], 0.116 µM. Besides, the GI50 is 0.106 µM in [6], 0.0461 µM in experiment [7] and 0.0417 µM in experiment [8]. The TGI in [9] is 35.5 µM; in experiment [2], more than 50 µM; in experiment [10], 0.905 µM; in [3] it was 0.315 µM; in experiment [4] it was 2.02 µM; in experiment [5] it was more than 50 µM. Further, the results for the TGI in experiment [6], in experiment [7] and in [8] were 0.495 µM, more than 50 µM and 0.171 µM, respectively.
